In paper PMC11250742, “Preclinical evaluation of CXCR4 peptides for targeted radionuclide therapy in glioblastoma” (EJNMMI Radiopharmacy and Chemistry, 2024):
Where a SMILES comes first, the peptide text is derived from it. Bridges are numbered along the chain shown (N, C = ends). Roman numbers before positions name the chains, in order. [ ]: non-standard residue; d: D form. The star is where a group is joined. DOTA = O=C(O)CN1CCN(CC(=O)O)CCN(CC(=O)*)CCN(CC(=O)O)CC1

Key:
Format in all cases: cell-based
U87-CXCR4 + cells [1] = experiment: Cell membrane binding and internalisation assay
Protocol: In the saturation binding assays, U87-CXCR4 + cells were seeded in 24-well plates and allowed to adhere. The night before the experiment, complete media was replaced with media containing 2% FBS. To determine the total binding, cells were treated with a mixture of each radiolabelled peptide (at final concentrations ranging from 0.1 to 1000 nM, corresponding to activity concentrations ranging from 0.005 to 50 MBq/mL) with 0.2% dimethyl sulfoxide (DMSO, vehicle). Non-specific binding (NSB) was verified by treating cells with a mixture of each radiolabelled peptide with 100 µM of AMD11070, a potent CXCR4 antagonist.
After 4 h of incubation at 37 °C and 5% CO2, the unbound fraction was collected in gamma counter tubes, and the cells were washed twice with PBS. The wash fractions were added to the same gamma counter tubes. Next, cells were lysed by incubation with 1 M NaOH for 30 min at room temperature (RT). After collecting the lysed cell fractions, two washes with 1 M NaOH were performed, and added to the same fractions, corresponding to the total bound fractions.
For the internalisation assay, 1 and 100 nM of the radiolabelled peptides were used. The membrane-bound fraction was separated from the internalised fraction by a 10 min incubation at RT with a stripping buffer of 50 mM glycine and 100 mM NaCl, pH 2.8. This was followed by lysis with 1 M NaOH as described above.
The activities of all collected fractions were measured in an automated gamma counter. Activity measurements were converted to % added activity (%AA) and normalised for cell counts. A standard curve, obtained by measuring the treatment solutions, was used to convert the activity concentration to moles.

U87-CXCR4 + cells [2] = experiment: Apoptosis live cell imaging (Annexin V, Caspase 3/7; IncuCyte); conditions: day 5, 4 h, normalised to confluence and vehicle, N = 2
Protocol: Apoptosis was measured using the IncuCyte® Zoom system (Essen Bioscience, Hertfordshire, UK).
Briefly, cells were seeded in 96-well plates, and left to attach overnight at 37 °C, 5% CO2. Next, cells were treated with different activity concentrations of [^177Lu]Lu-DOTA-POL3026 or [^177Lu]Lu-DTPA, ranging from 1 to 20 MBq/mL. After four hours of incubation at 37 °C and 5% CO2, cells were washed twice with PBS. The Sartorius™ IncuCyte® dyes Caspase 3/7 green reagent and Annexin V red reagent were added at 1/2000 and 1/200 dilutions, respectively. Images were analysed using the IncuCyte® Zoom software. The average values of Green Calibrated Unit GCU x µm² (for Caspase 3/7) and Red Calibrated Units RCU x µm² (for Annexin V) signal were normalised to cell confluence percentages, five and seven days after treatment. Vehicle includes the NaOAc radiolabeling buffer at the concentration used for the 20 MBq/mL peptide solutions.

U87-CXCR4 + cells [3] = experiment: MTS cell viability assay; conditions: for cell viability: % of vehicle, mean ± SD
Protocol: Cell viability assays were performed using increasing activity concentrations of the radiolabelled peptides (1 to 20 MBq/mL), incubated with U87-CXC4 + cells for four hours at 37 °C, 5% CO2. After the incubation period, cells were washed twice with PBS and replenished with complete media. After five and seven days of treatment, the cell media was removed and MTS (3-(4,5-dimethylthiazol-2-yl)-5-(3-carboxymethoxyphenyl)-2-(4-sulfophenyl)-2 H-tetrazolium) reagent added, prepared according to manufacturer’s instructions (CellTiter 96® AQueous One Solution Cell Proliferation Assay, Promega, Wisconsin, United States). To determine the effect of the radiation originating from unbound radiolabelled peptides, cells were treated with equivalent activity concentrations of [^177Lu]Lu-DTPA. Triton X-100 (0.1%) was used as a positive control. Vehicle includes the NaOAc radiolabeling buffer at the concentration used for the 20 MBq/mL peptide solutions. The cells were incubated for 0.5–1 h with the MTS reagent at 37 °C, 5% CO2. Absorbance was measured at 490 nm using a BioTek Synergy H1 plate reader (Agilent Technologies, Mechelen, Belgium). Cell viability was normalised to the vehicle and calculated as percentage of cell viability.

U87-CXCR4 + cells [4] = experiment: DNA damage immunofluorescence (yH2AX / 53BP1)
Protocol: DNA damage in U87-CXCR4 + cells was detected by immunofluorescent staining of the DNA damage and repair proteins, phospho-H2A histone family member X (yH2Ax) and p53-binding protein 1 (53BP1). Briefly, cells were seeded in 96-well plates and left overnight to adhere at 37 °C, 5% CO2. Next, cells were treated with different activity concentrations of [^177Lu]Lu-DOTA-POL3026 or [^177Lu]Lu-DTPA, ranging from 1 to 20 MBq/mL. After four hours of incubation, cells were washed twice with PBS, replenished with fresh media, and left at 37 °C, 5% CO2 until the fixation time point. For fixation, cells were washed with PBS, and fixed by incubating them with 4% paraformaldehyde (PFA) for 15 min at RT. This was done 0, 24 and 120 h after treatment. Cells were washed twice with PBS and stored in PBS at 4 °C until the residual radioactivity in the plate decayed. The vehicle includes the NaOAc radiolabeling buffer at the concentration used for the 20 MBq/mL peptide solutions.
After decay storage, yH2Ax/53BP1 double staining was performed using the following protocol. First, cells were washed once with PBS-glycine and then permeabilised by washing them for 10 min with PBS-Triton X-100. […]
Cells were imaged at 40x magnification using a BioTek Cytation 5 (Agilent Technologies, Mechelen, Belgium), where 4 fields were imaged per well, ensuring that at least a hundred cells were counted per condition. […]

Compound	added activity bound to the cell membrane (U87-CXCR4 + cells [1]; 1 nM, 4 h, 37 °C, glycine stripping buffer pH 2.8, mean ± SD, N = 2)	added activity internalised (U87-CXCR4 + cells [1]; 1 nM, 4 h, 37 °C, mean ± SD, N = 2)	reduction of binding in presence of 100 µM AMD11070 (specific binding) (U87-CXCR4 + cells [1]; 1 nM, stated after the internalised fractions)	change of uptake (%AA) at 100 nM compared with 1 nM (U87-CXCR4 + cells [1]; incubation concentration 100 nM)	Annexin V signal (U87-CXCR4 + cells [2]; 1 MBq/mL)	Annexin V signal (U87-CXCR4 + cells [2]; 10 MBq/mL)	cell viability (U87-CXCR4 + cells [3]; 1 MBq/mL, day not stated in the sentence (follows the day 7 statement))	cell viability (U87-CXCR4 + cells [3]; day 5, 20 MBq/mL, 4 h incubation, N = 3–4)	effect on cell viability (U87-CXCR4 + cells [3]; day 7, 2 to 20 MBq/mL)	increase of yH2AX (U87-CXCR4 + cells [4]; any of the activity concentrations (1–20 MBq/mL))	increase in 53BP1 (U87-CXCR4 + cells [4]; any timepoint (0 h, 1 day, 5 days) after treatment)
CC(C)C[C@@H](N)C(=O)NCC(=O)N[C@H](C)C(=O)N[C@H](CO)C(=O)N[C@H](Cc1c[nH]c2ccccc12)C(=O)N[C@H](Cc1c[nH]cn1)C(=O)N[C@H](CCCNC(=N)N)C(=O)N1CCC[C@@H]1C(=O)N[C@H](CC(=O)O)C(=O)N[C@H](CCCCNC(=O)CN1CCN(CC(=O)O)CCN(CC(=O)O)CCN(CC(=O)O)CC1)C(=O)NCCCC[C@@H](NC(=O)[C@H]1CCCN1C(=O)[C@@H](CC(C)C)NC(=O)[C@H]1CCCN1C(=O)[C@@H](CCCNC(=N)N)NC(=O)[C@@H](CCCCN)NC(=O)[C@@H](CCC(N)=O)NC(=O)[C@@H](Cc1ccc(O)cc1)NC(=O)CNC(=O)[C@@H](CC(C)C)NC(=O)[C@@H](CS)NC(=O)[C@@H](CS)NC(=O)[C@@H](CCCCN)NC(=O)[C@@H](CC(=O)O)NC(=O)[C@H]1CCCN1C(=O)[C@@H](CCCNC(=N)N)NC(=O)[C@@H](Cc1c[nH]cn1)NC(=O)[C@@H](Cc1c[nH]c2ccccc12)NC(=O)[C@@H](CO)NC(=O)[C@@H](C)NC(=O)CNC(=O)[C@H](N)CC(C)C)C(N)=O [[^177Lu]Lu-DOTA-DV1-K-DV3, metal not drawn] (I: H-[dL]G[dA][dS][dW][dH][dR][dP][dD][dK][dC][dC][dL]G[dY][dQ][dK][dR][dP][dL][dP][dK]-NH2 / II: H-[dL]G[dA][dS][dW][dH][dR][dP][dD][dK](DOTA); amide I:22-II:C; N-terminus and C-terminus assumed)	less than 1 %AA	0.2 ± 0.02 %AA	negligible	did not significantly increase	–	–	–	–	–	–	–
O=C([O-])CN(CCN(CC(=O)[O-])CC(=O)[O-])CCN(CC(=O)[O-])CC(=O)[O-].[177Lu+3] [[^177Lu]Lu-DTPA]	–	–	–	–	1.4 ± 0.8 times the vehicle	3.3 ± 3.3 times the vehicle	90.9 ± 7.8%	50.2 ± 10.4%	statistically-significant reduction	did not result in an increase	No statistically-significant increase
